According to US12552800B2, “Compounds for diagnosis” (AC IMMUNE SA, priority 2020, dated 2026):

Target: T1, PD brain-derived a-syn aggregates (Homo sapiens, UniProt P37840)
T1 construct: from tissue; host or cells: human PD donor brain, sarkosyl-insoluble 100,000 x g pellet
Assay: Micro-radiobinding competition assay against Example-1 [^3H-1] (Table 8)
Format: binding
Settings: for Competition at 100 nM (%): 100 nM non-radiolabelled example compound vs Example-1 [^3H-1] ligand; for Competition at 100 nM (%) / Competition at 1 μM (%): human PD brain-derived a-syn aggregates; for Competition at 1 μM (%): 1 μM non-radiolabelled example compound vs Example-1 [^3H-1] ligand
Method: PD brain-derived a-syn aggregates were spotted onto microarray slides. The slides were incubated with the Example-1 [^3H-1] at 6 nM or 20 nM and the example compounds (non-radiolabelled) at 1 μM and 100 nM. In some cases, the non-radiolabelled example compounds were further assessed for a range of different concentrations, varying from 0.05 nM to 2 μM. After incubation, slides were washed and scanned by a real-time autoradiography system (BeaQuant, ai4R). Quantification of the signal was performed by using the Beamage image analysis software (ai4R). […] All measurements were performed with at least two technical replicates. For compounds tested in more than one experiment, the mean of the replicates or K; values in independent experiments is reported.
Results: Example compounds were assessed for their potency to compete with the binding of Example-1 [^3H-1] ligand to PD patient brain-derived a-syn aggregates. Results of the micro-radiobinding competition assay for the example compounds tested are shown in Table 8 as: % competition at 1 μM and 100 nM.

Row | SMILES | Competition at 100 nM (%) | Competition at 1 μM (%) | Ki (mean of Ki values in independent experiments using PD brain-derived homogenates from two different donors)
1 | Cc1c2c(nn1-c1ccc(N3CC[C@@H](F)C3)nc1)CN(c1ccncc1)C2=O [Example 94] | 18% | 70% | 
2 | O=C1c2cn(-c3ccc(C4CCCC4)nc3)nc2CN1c1cncc(F)n1 [Example 161] | 42% | 65% | 
3 | O=C1c2cn(-c3ccc(N4CC[C@H](F)C4)nc3)nc2CN1c1cncs1 [Example 128] | 55% | 85% | 
4 | O=C1c2cn(-c3ccc(N4CC[C@H](F)C4)nc3)nc2CN1c1nccs1 [Example 136] | 75% |  | 
5 | O=C1c2cn(-c3ccc(N4CCCC4)nc3)nc2CN1c1cnccc1F [Example 47] | 39% |  | 
6 | O=C1c2cn(-c3ccc(N4CC[C@H](F)C4)cc3)nc2CN1c1cccnc1 [Example 87] | 67% | 92% | 15 nM
7 | COc1ccc(-n2cc3c(n2)CN(c2cncc(F)n2)C3=O)cn1 [Example 147] | 72% | 86% | 
8 | COc1ccc(-n2cc3c(n2)CN(c2cccnc2)C3=O)cn1 [Example 130] | 74% | 85% | 
9 | N#Cc1ccc(N2Cc3nn(-c4ccc(N5CC[C@@H](F)C5)nc4)cc3C2=O)nc1 [Example 33] | 75% |  | 
10 | CC(C)n1cc(N2Cc3nn(-c4ccc(N5CC[C@H](F)C5)nc4)cc3C2=O)cn1 [Example 119] | 12% | 51% | 
11 | O=C1c2cn(-c3ccc(N4CC[C@@H](F)C4)nc3)nc2CN1c1nccs1 [Example 134] | 74% |  | 
12 | CC(C)Oc1ccc(-n2cc3c(n2)CN(c2cccc(F)n2)C3=O)cn1 [Example 160] | 51% | 73% | 
13 | N#Cc1ccnc(N2Cc3nn(-c4ccc(N5CC[C@@H](F)C5)nc4)cc3C2=O)c1 [Example 86] | 64% |  | 
14 | O=C1c2cn(-c3ccc(N4CCCC4)nc3)nc2CN1c1cccnc1F [Example 39] | 43% | 66% | 
15 | COc1ccc(-n2cc3c(n2)CN(c2cccc(F)n2)C3=O)cn1 [Example 159] | 46% | 67% | 
16 | CC(C)Oc1ccc(-n2cc3c(n2)CN(c2cncc(F)n2)C3=O)cn1 [Example 158] | 19% | 54% | 
17 | O=C1c2cn(-c3ccc(N4CCCC4)nc3)nc2CN1c1ccnc(F)c1 [Example 41] | 61% | 93% | 
18 | N#Cc1ccc(-n2cc3c(n2)CN(c2cccc(F)n2)C3=O)cn1 [Example 156] | 80% | 85% | 
19 | O=C1c2cn(-c3ccc(N4CC[C@@H](F)C4)cc3)nc2CN1c1cccnc1 [Example 85] | 72% | 99% | 
20 | O=C1c2cn(-c3ccc(N4CCOCC4)nc3)nc2CN1c1cncc(F)n1 [Example 141] | 51% | 66% | 
21 | Cn1cc(N2Cc3nn(-c4ccc(N5CCC[C@H](F)C5)nc4)cc3C2=O)cn1 [Example 121] | 40% | 84% | 
22 | Cn1ccc(N2Cc3nn(-c4ccc(N5CC[C@@H](F)C5)nc4)cc3C2=O)n1 [Example 116] | 71% | 97% | 
23 | N#Cc1cc(N2Cc3nn(-c4ccc(N5CCCC5)nc4)cc3C2=O)ccc1F [Example 46] | 61% |  | 
24 | Cc1c2c(nn1-c1ccc(N3CCCC3)nc1)CN(c1cccc(F)n1)C2=O [Example 144] | 49% | 68% | 

More lines, now with the values ahead:

Row | Competition at 100 nM (%) | Competition at 1 μM (%) | Ki (mean of Ki values in independent experiments using PD brain-derived homogenates from two different donors) | SMILES
25 | 63% |  |  | O=C1c2cn(-c3ccc(N4CC[C@@H](F)C4)nc3)nc2CN1c1cccc(F)c1 [Example 68]
26 | 65% |  |  | O=C1c2cn(-c3ccc(N4CC[C@H](F)C4)nc3)nc2CN1c1cccc(F)c1 [Example 70]
27 | 70% |  |  | Cc1cccc(N2Cc3nn(-c4ccc(N5CC[C@H](F)C5)nc4)cc3C2=O)c1 [Example 38]
28 | 75% | 105% |  | Cc1ccc(N2Cc3nn(-c4ccc(N5CC[C@@H](F)C5)nc4)cc3C2=O)nc1 [Example 110]
29 | 32% | 65% |  | O=C1c2cn(-c3ccc(N4CC[C@@H](F)C4)nc3)nc2CN1c1ccccc1O [Example 175]
30 | 12% | 54% |  | O=C1c2cn(-c3ccc(N4CC[C@H](F)C4)nc3)nc2CN1c1ccncc1O [Example 173]
31 | 22% | 39% |  | COc1cccc(N2Cc3nn(-c4ccc(N5CC[C@@H](F)C5)nc4)cc3C2=O)n1 [Example 74]
32 | 71% |  |  | N#Cc1cccc(N2Cc3nn(-c4ccc(N5CC[C@@H](F)C5)nc4)cc3C2=O)c1 [Example 67]
33 | 95% | 100% |  | COc1cc(N2Cc3nn(-c4ccc(N5CC[C@H](F)C5)nc4)cc3C2=O)ccn1 [Example 106]
34 | 82% | 97% |  | N#Cc1cc(N2Cc3nn(-c4ccc(N5CC[C@H](F)C5)nc4)cc3C2=O)ccn1 [Example 111]
35 | 88% | 107% |  | O=C1c2cn(-c3ccc(N4CC[C@H](F)C4)nc3)nc2CN1c1ccc(O)cn1 [Example 165]
36 | 46% | 64% |  | O=C1c2cn(-c3ccc(N4CC[C@@H](F)C4)nc3)nc2CN1c1ccncc1O [Example 174]
37 | 47% |  |  | Cc1cccc(N2Cc3nn(-c4ccc(N5CC[C@H](F)C5)nc4)cc3C2=O)n1 [Example 83]
38 | 37% |  |  | COc1ccccc1N1Cc2nn(-c3ccc(N4CC[C@H](F)C4)nc3)cc2C1=O [Example 37]
39 | 45% | 79% |  | O=C1c2cn(-c3ccc(N4CC[C@H](F)C4)cn3)nc2CN1c1cccnc1 [Example 72]
40 | 91% |  |  | N#Cc1ccc(N2Cc3nn(-c4ccc(N5CC[C@H](F)C5)nc4)cc3C2=O)cn1 [Example 29]
41 | 61% | 91% |  | O=C1c2cn(-c3ccc(N4CC[C@@H](F)C4)nc3)nc2CN1c1ncccn1 [Example 15]
42 | 69% | 93% |  | COc1ccnc(N2Cc3nn(-c4ccc(N5CC[C@@H](F)C5)nc4)cc3C2=O)c1 [Example 76]

Row | Competition at 100 nM (%) | Competition at 1 μM (%) | Ki (mean of Ki values in independent experiments using PD brain-derived homogenates from two different donors) | SMILES
43 | 92% | 110% |  | O=C1c2cn(-c3ccc(N4CC[C@@H](F)C4)nc3)nc2CN1c1ccc(O)cn1 [Example 162]
44 | 92% | 100% |  | COc1cc(N2Cc3nn(-c4ccc(N5CC[C@@H](F)C5)nc4)cc3C2=O)ccn1 [Example 107]
45 |  | 25% |  | Cc1ncccc1N1Cc2nn(-c3ccc(N4CC[C@@H](F)C4)nc3)cc2C1=O [Example 12]
46 | 47% | 88% |  | O=C1c2cn(-c3ccc(N4CCC[C@H](F)C4)nc3)nc2CN1c1cccnc1 [Example 43]
47 | 16% | 48% |  | O=C1c2cn(-c3ccc(N4CC[C@@H](F)C4)nc3)nc2CN1c1ccccc1F [Example 69]
48 | 80% | 99% |  | O=C1c2cn(-c3ccc(N4CC[C@@H](F)C4)nc3)nc2CN1c1ccns1 [Example 125]
49 | 39% | 86% |  | O=C1c2cn(-c3ccc(N4CC[C@@H](F)C4)nc3)nc2CN1c1cccnn1 [Example 152]
50 | 73% |  |  | Cc1ccc(N2Cc3nn(-c4ccc(N5CC[C@H](F)C5)nc4)cc3C2=O)cc1 [Example 35]
51 | 8% | 27% |  | COc1ccccc1N1Cc2nn(-c3ccc(N4CC[C@@H](F)C4)nc3)cc2C1=O [Example 62]
52 | 65% | 102% |  | O=C1c2cn(-c3ccc(N4CC[C@H](F)C4)nc3)nc2CN1c1cc(O)ccn1 [Example 170]
53 | 32% | 58% |  | Cc1cnccc1N1Cc2nn(-c3ccc(N4CC[C@H](F)C4)nc3)cc2C1=O [Example 123]
54 | 92% | 99% |  | N#Cc1cc(N2Cc3nn(-c4ccc(N5CC[C@@H](F)C5)nc4)cc3C2=O)ccn1 [Example 114]
55 | 80% | 100% |  | O=C1c2cn(-c3ccc(N4CC[C@@H](F)C4)nc3)nc2CN1c1ccccc1 [Example 51]
56 | 77% | 103% |  | O=C1c2cn(-c3ccc(N4CC[C@H](F)C4)nc3)nc2CN1c1cccc(O)c1 [Example 178]
57 | 14% | 38% |  | N#Cc1cccc(N2Cc3nn(-c4ccc(N5CC[C@H](F)C5)nc4)cc3C2=O)n1 [Example 84]
58 | 18% | 51% |  | O=C1c2cn(-c3ccc(N4CC[C@H](F)C4)nc3)nc2CN1c1ccccc1F [Example 71]
59 | 34% | 61% |  | Cc1cnccc1N1Cc2nn(-c3ccc(N4CC[C@@H](F)C4)nc3)cc2C1=O [Example 122]
